In patent publication US20240091318A1, “COMBINATION THERAPY COMPRISING LONG ACTING GLP-1/GLUCAGON AND NPY2 RECEPTOR AGONISTS” (Boehringer Ingelheim International GmbH, priority 2022, published 2024):

Assays:
[1] = Effect on acute food intake (AFI) in normal NMRI mice; format: in vivo; details: male NMRI mice, 10 nmol/kg s.c. once, % vs. vehicle group
Method: Effect on Acute Food Intake in Normal NMRI Mice
Male NMRI mice were obtained from Charles River (Charles River, Research Models & Services Germany GmbH) or from JanVier (JanVier Labs, France) at 5 weeks of age. […] Room temperature was controlled to 21° C.±1° C., with 60%±20% humidity.
Animals were transferred 5-7 days before the start of the study to a real-time food intake monitoring system, HM-2 system (MBRose, Denmark), to allow acclimatization to experimental conditions. As the animals were uniquely identified with microchips, each individual animal was identified by its microchip upon entry and exit from the food channel. Randomization of the mice for each study group (n=7-8) was based on body weight measured the day before the start of the study. A vehicle-treated (50 mM phosphate buffer pH7 with 5% Mannitol) group was included in each experiment. Six hours before the start of the night phase animals were fasted. One hour before the dark phase animals were dosed once subcutaneously (10 nmol/kg) with test peptide. […] The food intake of the treated groups was normalized (in %) to the average food intake of the group receiving vehicle (Table 1). Statistical significance was evaluated using One-way analysis of variance with Turkey's multiple comparison test. P<0.05 was considered statistically significant.

[2] = Effect on body weight loss and food intake in wildtype Diet Induced Obesity (DIO) mice; format: in vivo; details: for BW 30 nmol/kg 5 day (body weight loss vs. vehicle group): 30 nmol/kg s.c. once daily
Excerpt: Effect on Body Weight Loss in Wildtype Diet Induced Obesity Mice
Male C57BL6/J pre-fed on 60% high fat diet were obtained from The Jackson Laboratories at >16 weeks of age. Upon arrival of the Diet Induced Obesity (DIO) mice, the mice where single housed to obtain accurate and individual food intake measurements of each animal and assigned an animal number. […] During the entire study animals had ad libitum access to food and water.
Before start of treatment a stratified randomization was performed based on the body weight measured in week −1 prior study start. At study start the age of mice was around 20 weeks. Bodyweight and food intake were measured daily before compound administration. Animals were dosed around one hour before start of the night phase by subcutaneous injection of 30 nmol/kg once daily for 5 till 28 days depending on the experiment. Control animals were dosed by subcutaneous injection daily with vehicle.

Compound | AFI 10 nmol/kg 24 h (food intake normalized to vehicle group) [1] [%] | BW 30 nmol/kg 5 day (body weight loss vs. vehicle group) [2] [%] | body weight lowering efficacy (% BW), combination with Compound I compared to combination with semaglutide ([2]; once daily (FIGS. 6A, 8A vs. 5A, 7A)) | duration of food intake reduction, combination with Compound I vs. combination with semaglutide ([2]; once daily (FIGS. 6B, 8B vs. 5B, 7B)) | total food intake, combination with Compound I ([2]; once daily, area under the curve of food intake (FIGS. 6D, 8D)) | body weight loss in combination with Compound I ([2]; once daily, combination with Compound I (FIGS. 6A, 8A, 10A)) | effect on body weight in combination with semaglutide ([2]; once daily, combination with semaglutide (FIGS. 5A, 7A, 9A))
CC(C)CC(=O)N[C@@H](C)C(=O)N1CCC[C@H]1C(=O)N[C@@H](C)C(=O)N[C@@H](CCCCNC(=O)COCCOCCNC(=O)COCCOCCNC(=O)CC[C@H](NC(=O)CCCCCCCCCCCCCCCCC(=O)O)C(=O)O)C(=O)N1CCC[C@H]1C(=O)N[C@@H](CCC(=O)O)C(=O)N[C@@H](CCC(=O)O)C(=O)N[C@@H](CC(=O)O)C(=O)N[C@@H](C)C(=O)N[C@H](C(=O)N1CCC[C@H]1C(=O)N[C@@H](CCC(=O)O)C(=O)N[C@@H](CCC(=O)O)C(=O)N[C@@H](CC(C)C)C(=O)N[C@@H](CCC(N)=O)C(=O)N[C@@H](CCCNC(=N)N)C(=O)N[C@@H](Cc1ccc(O)cc1)C(=O)N[C@@H](Cc1ccc(O)cc1)C(=O)N[C@H](C(=O)N[C@@H](CO)C(=O)N[C@@H](CC(C)C)C(=O)N[C@@H](CCCNC(=N)N)C(=O)N[C@@H](Cc1c[nH]cn1)C(=O)N[C@@H](Cc1ccc(O)cc1)C(=O)N[C@@H](Cc1ccc(O)cc1)C(=O)N[C@@H](CC(N)=O)C(=O)N[C@@H](Cc1c[nH]c2ccccc12)C(=O)N[C@@H](CC(C)C)C(=O)N[C@H](C(=O)N[C@@H](CCCNC(=N)N)C(=O)N[C@@H](CCC(N)=O)C(=O)N[C@@H](CCCNC(=N)N)C(=O)N[C@@H](Cc1ccc(O)cc1)C(N)=O)[C@@H](C)O)C(C)C)[C@@H](C)O [Compound A, N{alpha-4}-(3-methylbutanoyl)-N{epsilon-7}-[2-(2-{2-[2-(2-{2-[(4S)-4-carboxy-4-(17-carboxyheptadecanamido)butanamido]ethoxy}ethoxy)acetamido]ethoxy}ethoxy)acetamido]-[4A,6A,7K,9E,13T,18Q,22V,28Y,30W,31L]hPYY(4-36)] | 39 | 6.7 |  |  |  |  | 
CC[C@H](C)[C@H](NC(=O)[C@H](CCC(=O)O)NC(=O)[C@H](CCC(=O)O)NC(=O)[C@@H]1CCCN1C(=O)[C@@H](NC(=O)[C@H](C)NC(=O)[C@H](CC(=O)O)NC(=O)[C@H](CCC(=O)O)NC(=O)[C@H](CCC(=O)O)NC(=O)[C@@H]1CCCN1C(=O)[C@H](CCCCNC(=O)COCCOCCNC(=O)COCCOCCNC(=O)CC[C@H](NC(=O)CCCCCCCCCCCCCCCCC(=O)O)C(=O)O)NC(=O)[C@H](CCC(=O)O)NC(=O)[C@@H]1CCCN1C(=O)[C@H](C)NC(=O)CC(C)C)[C@@H](C)O)C(=O)N[C@@H](CCC(N)=O)C(=O)N[C@@H](CCCNC(=N)N)C(=O)N[C@@H](Cc1ccc(O)cc1)C(=O)N[C@@H](Cc1ccc(O)cc1)C(=O)N[C@H](C(=O)N[C@@H](CO)C(=O)N[C@@H](CC(C)C)C(=O)N[C@@H](CCCNC(=N)N)C(=O)N[C@@H](Cc1c[nH]cn1)C(=O)N[C@@H](Cc1ccc(O)cc1)C(=O)N[C@@H](Cc1ccc(O)cc1)C(=O)N[C@@H](CC(N)=O)C(=O)N[C@@H](Cc1c[nH]c2ccccc12)C(=O)N[C@@H](CC(C)C)C(=O)N[C@H](C(=O)N[C@@H](CCCNC(=N)N)C(=O)N[C@@H](CCC(N)=O)C(=O)N[C@@H](CCCNC(=N)N)C(=O)N[C@@H](Cc1ccc(O)cc1)C(N)=O)[C@@H](C)O)C(C)C [Compound G, N{alpha-4}-(3-methylbutanoyl)-N{epsilon-7}-[2-(2-{2-[2-(2-{2-[(4S)-4-carboxy-4-(17-carboxyheptadecanamido)butanamido]ethoxy}ethoxy)acetamido]ethoxy}ethoxy)acetamido]-[4A,7K,9E,13T,17I,18Q,22V,28Y,30W,31L]hPYY(4-36)] | 44 | 10.6 |  |  |  |  | 
CC[C@H](C)[C@H](NC(=O)[C@H](CCC(=O)O)NC(=O)[C@H](CCC(=O)O)NC(=O)[C@@H]1CCCN1C(=O)[C@H](CO)NC(=O)[C@H](C)NC(=O)[C@H](CC(=O)O)NC(=O)[C@H](CCC(=O)O)NC(=O)[C@H](CCC(=O)O)NC(=O)[C@@H]1CCCN1C(=O)[C@H](CCCCNC(=O)COCCOCCNC(=O)COCCOCCNC(=O)CC[C@H](NC(=O)CCCCCCCCCCCCCCCCC(=O)O)C(=O)O)NC(=O)[C@H](C)NC(=O)[C@@H]1CCCN1C(=O)[C@H](C)NC(=O)CC(C)C)C(=O)N[C@@H](CCC(N)=O)C(=O)N[C@@H](CCCNC(=N)N)C(=O)N[C@@H](Cc1ccc(O)cc1)C(=O)N[C@@H](Cc1ccc(O)cc1)C(=O)N[C@H](C(=O)N[C@@H](CO)C(=O)N[C@@H](CC(C)C)C(=O)N[C@@H](CCCNC(=N)N)C(=O)N[C@@H](Cc1c[nH]cn1)C(=O)N[C@@H](Cc1ccc(O)cc1)C(=O)N[C@@H](Cc1ccc(O)cc1)C(=O)N[C@@H](CC(N)=O)C(=O)N[C@@H](Cc1c[nH]c2ccccc12)C(=O)N[C@@H](CC(C)C)C(=O)N[C@H](C(=O)N[C@@H](CCCNC(=N)N)C(=O)N[C@@H](CCC(N)=O)C(=O)N[C@@H](CCCNC(=N)N)C(=O)N[C@@H](Cc1ccc(O)cc1)C(N)=O)[C@@H](C)O)C(C)C [Compound E, N{alpha-4}-(3-methylbutanoyl)-N{epsilon-7}-[2-(2-{2-[2-(2-{2-[(4S)-4-carboxy-4-(17-carboxyheptadecanamido)butanamido]ethoxy}ethoxy)acetamido]ethoxy}ethoxy)acetamido]-[4A,6A,7K,9E,17I,18Q,22V,28Y,30W,31L]hPYY(4-36)] | 48 | 7.3 | greater body weight lowering efficacy | longer-lasting effect on food intake | pronounced total food intake reduction | Synergistic body weight loss | synergistic effect
